Results as given in ChEMBL document CHEMBL3885881, “DrugMatrix”.

Species: Rattus norvegicus
Assay: DrugMatrix - Regimen: Daily Repeat
Assay type: toxicity, organism-based, Sprague-Dawley
Set-up: regimen Daily Repeat, gender Male, age 6-8 weeks
Details: in vivo, po, route oral GAVAGE, vehicle 100 % WATER; for ABSOLUTE BASOPHIL / ABSOLUTE EOSINOPHIL / ABSOLUTE LYMPHOCYTE / ABSOLUTE MONOCYTE / ABSOLUTE SEGMENTED NEUTROPHIL / BASOPHIL / EOSINOPHIL / ERYTHROCYTE COUNT / HEMATOCRIT / HEMOGLOBIN / LEUKOCYTE COUNT / LYMPHOCYTE / MEAN CORPUSCULAR HEMOGLOBIN / MEAN CORPUSCULAR HEMOGLOBIN CONCENTRATION / MEAN CORPUSCULAR VOLUME / MONOCYTE / NEUTROPHIL / NUCLEATED RED BLOOD CELLS / PLATELET COUNT: tissue Blood; for ALANINE AMINOTRANSFERASE / ALBUMIN / ALKALINE PHOSPHATASE / ASPARTATE AMINOTRANSFERASE / BLOOD UREA NITROGEN / CARBON DIOXIDE / CHLORIDE / CHOLESTEROL / CREATINE PHOSPHOKINASE / CREATININE / GLUCOSE / LACTATE DEHYDROGENASE / LIPASE / PHOSPHORUS / POTASSIUM / SODIUM / TOTAL BILIRUBIN / TOTAL PROTEIN / URIC ACID: tissue Plasma
[1] = 0 mg/kg, 72 h, dose level Control, time 3 day
[2] = 0 mg/kg, 120 h, dose level Control, time 5 day
[3] = 50 mg/kg, 72 h, dose level Low, time 3 day

SMILES: Cc1ncc([N+](=O)[O-])n1CCO [METRONIDAZOLE]
- ABSOLUTE BASOPHIL [1]: 0 CELLS/uL
- ABSOLUTE EOSINOPHIL [1]: 86.33 CELLS/uL
- ABSOLUTE LYMPHOCYTE [1]: 12090.17 CELLS/uL
- ABSOLUTE MONOCYTE [1]: 166.67 CELLS/uL
- ABSOLUTE SEGMENTED NEUTROPHIL [1]: 1090.17 CELLS/uL
- BASOPHIL [1]: 0%
- EOSINOPHIL [1]: 0.67%
- ERYTHROCYTE COUNT [1]: 5.57 x10E6/uL
- HEMATOCRIT [1]: 35.33%
- HEMOGLOBIN [1]: 13.83 G/DL
- LEUKOCYTE COUNT [1]: 13.43 x10E3/uL
- LYMPHOCYTE [1]: 89.83%
- MEAN CORPUSCULAR HEMOGLOBIN [1]: 24.88 pg
- MEAN CORPUSCULAR HEMOGLOBIN CONCENTRATION [1]: 39.15 G/DL
- MEAN CORPUSCULAR VOLUME [1]: 63.52 fL
- MONOCYTE [1]: 1.17%
- NEUTROPHIL [1]: 8.33%
- NUCLEATED RED BLOOD CELLS [1]: 0 /100WBC
- PLATELET COUNT [1]: 1181.33 x10E3/uL
- ALANINE AMINOTRANSFERASE [1]: 48.33 u/L
- ALBUMIN [1]: 4.1 G/DL
- ALKALINE PHOSPHATASE [1]: 395 u/L
- ASPARTATE AMINOTRANSFERASE [1]: 81.83 u/L
- BLOOD UREA NITROGEN [1]: 15.83 mg/dL
- CARBON DIOXIDE [1]: 24.17 mmol/L
- CHLORIDE [1]: 103.83 MEQ/L
- CHOLESTEROL [1]: 63.67 mg/dL
- CREATINE PHOSPHOKINASE [1]: 372.83 u/L
- CREATININE [1]: 0.18 mg/dL
- GLUCOSE [1]: 173.83 mg/dL
- LACTATE DEHYDROGENASE [1]: 188.33 u/L
- LIPASE [1]: 9.5 u/L
- PHOSPHORUS [1]: 11.95 mg/dL
- POTASSIUM [1]: 5.99 MEQ/L
- SODIUM [1]: 144.43 MEQ/L
- TOTAL BILIRUBIN [1]: 0.15 mg/dL
- TOTAL PROTEIN [1]: 5.95 G/DL
- URIC ACID [1]: 1.82 mg/dL
- ABSOLUTE BASOPHIL [2]: 0 CELLS/uL
- ABSOLUTE EOSINOPHIL [2]: 26.67 CELLS/uL
- ABSOLUTE LYMPHOCYTE [2]: 7583.83 CELLS/uL
- ABSOLUTE MONOCYTE [2]: 131.33 CELLS/uL
- ABSOLUTE SEGMENTED NEUTROPHIL [2]: 674.83 CELLS/uL
- BASOPHIL [2]: 0%
- EOSINOPHIL [2]: 0.33%
- ERYTHROCYTE COUNT [2]: 5.78 x10E6/uL
- HEMATOCRIT [2]: 36.48%
- HEMOGLOBIN [2]: 14.03 G/DL
- LEUKOCYTE COUNT [2]: 8.42 x10E3/uL
- LYMPHOCYTE [2]: 89.83%
- MEAN CORPUSCULAR HEMOGLOBIN [2]: 24.3 pg
- MEAN CORPUSCULAR HEMOGLOBIN CONCENTRATION [2]: 38.52 G/DL
- MEAN CORPUSCULAR VOLUME [2]: 63.15 fL
- MONOCYTE [2]: 1.67%
- NEUTROPHIL [2]: 8.17%
- NUCLEATED RED BLOOD CELLS [2]: 0 /100WBC
- PLATELET COUNT [2]: 1186.67 x10E3/uL
- ALANINE AMINOTRANSFERASE [2]: 50.17 u/L
- ALBUMIN [2]: 4.07 G/DL
- ALKALINE PHOSPHATASE [2]: 367.5 u/L
- ASPARTATE AMINOTRANSFERASE [2]: 81.67 u/L
- BLOOD UREA NITROGEN [2]: 16.17 mg/dL
- CARBON DIOXIDE [2]: 32.33 mmol/L
- CHLORIDE [2]: 101.5 MEQ/L
- CHOLESTEROL [2]: 65.33 mg/dL
- CREATINE PHOSPHOKINASE [2]: 255.33 u/L
- CREATININE [2]: 0.17 mg/dL
- GLUCOSE [2]: 139.33 mg/dL
- LACTATE DEHYDROGENASE [2]: 95 u/L
- LIPASE [2]: 10.5 u/L
- PHOSPHORUS [2]: 10.38 mg/dL
- POTASSIUM [2]: 6.11 MEQ/L
- SODIUM [2]: 145.55 MEQ/L
- TOTAL BILIRUBIN [2]: 0.17 mg/dL
- TOTAL PROTEIN [2]: 5.98 G/DL
- URIC ACID [2]: 0.93 mg/dL
- ABSOLUTE BASOPHIL [3]: 0 CELLS/uL
- ABSOLUTE EOSINOPHIL [3]: 59.33 CELLS/uL
- ABSOLUTE LYMPHOCYTE [3]: 15201.67 CELLS/uL
- ABSOLUTE MONOCYTE [3]: 170 CELLS/uL
- ABSOLUTE SEGMENTED NEUTROPHIL [3]: 1569 CELLS/uL
- BASOPHIL [3]: 0%
- EOSINOPHIL [3]: 0.33%
- ERYTHROCYTE COUNT [3]: 5.47 x10E6/uL
- HEMATOCRIT [3]: 35.2%
- HEMOGLOBIN [3]: 13.83 G/DL
- LEUKOCYTE COUNT [3]: 17 x10E3/uL
- LYMPHOCYTE [3]: 88.67%
- MEAN CORPUSCULAR HEMOGLOBIN [3]: 25.3 pg
- MEAN CORPUSCULAR HEMOGLOBIN CONCENTRATION [3]: 39.3 G/DL
- MEAN CORPUSCULAR VOLUME [3]: 64.4 fL
- MONOCYTE [3]: 1%
- NEUTROPHIL [3]: 10%
- NUCLEATED RED BLOOD CELLS [3]: 0 /100WBC
- PLATELET COUNT [3]: 1236.33 x10E3/uL
- ALANINE AMINOTRANSFERASE [3]: 54.33 u/L
- ALBUMIN [3]: 3.9 G/DL
- ALKALINE PHOSPHATASE [3]: 296.67 u/L
- ASPARTATE AMINOTRANSFERASE [3]: 72 u/L
- BLOOD UREA NITROGEN [3]: 13.67 mg/dL
- CARBON DIOXIDE [3]: 28.33 mmol/L
- CHLORIDE [3]: 100.67 MEQ/L
- CHOLESTEROL [3]: 65 mg/dL
- CREATINE PHOSPHOKINASE [3]: 186.33 u/L
- CREATININE [3]: 0.12 mg/dL
- GLUCOSE [3]: 155.67 mg/dL
- LACTATE DEHYDROGENASE [3]: 82.33 u/L
- LIPASE [3]: 9.33 u/L
- PHOSPHORUS [3]: 12.27 mg/dL
- POTASSIUM [3]: 6.41 MEQ/L
- SODIUM [3]: 142.37 MEQ/L
- TOTAL BILIRUBIN [3]: 0.17 mg/dL
- TOTAL PROTEIN [3]: 5.6 G/DL
- URIC ACID [3]: 1.5 mg/dL
